Data: patent US11471459B2, “Compounds with enhanced anti-tumor effects” (FONDAZIONE PER L'ISTITUTO ONCOLOGICO DI RICERCA (IOR), priority 2018, dated 2022)

Assays:
[1] = tested on: MAVER1; assay: Proliferation MTT assay, 72 h; assay type: cell-based; conditions: Homo sapiens, MAVER1 (MCL), 72 h exposure
Procedure: (§1) Thirty-nine cell lines derived from activated B cell-like (ABC) (n=3) and germinal center B Cell (GCB) (n=12) diffuse large B cell lymphoma (DLBCL), mantle cell lymphoma (MCL) (n=9), chronic lymphocytic leukemia (CLL) (n=2), Hodgkin lymphoma (HL) (n=4), cutaneous T cell lymphoma (CTCL) (n=3), peripheral T cell lymphoma (PTCL) (n=1), anaplastic large T cell lymphoma (ALCL) (n=4), acute T cell leukemia (ATCL) (n=1) were cultured according to the recommended conditions. All media were supplemented with fetal bovine serum (10%), Penicillin-Streptomycin-Neomycin (˜5,000 units penicillin, 5 mg streptomycin and 10 mg neomycin/mL, Sigma) and L-glutamine (1%).
(§2) EG-011 was dissolved in dimethyl sulphoxide (DMSO) to obtain a stock concentration of 10 mM for in vitro experiments. EG-011 was dissolved in 25% hydroxypropyl beta cyclodextrin (HP-β-CD) in water and adjusted at pH 6.0 using NaOH (0.1 N) and HCl (0.1 N) for in vivo experiments. Application volume was 4.5 mL/kg (100 mg in 4.5 mL), and mice received 200 microliters (corresponding to 200 mg/kg) though intra peritoneal i.p. injection, once per day and five days per week.
(§3) Cells were seeded in 96-well plates (non-tissue culture treated) at a density of 10,000 cells for all cell lines. Each compound was dissolved in dimethyl sulphoxide (DMSO). For treatment of cells, compounds were serially diluted in the appropriate tissue culture medium, at a range of 20 mcM-78 nM following a 1:2 dilution factor and added to cells (in three replicates). Cells were incubated for 72 hours at 37° C., 5% CO2. DMSO alone was added to negative control (untreated) cells. Wells containing medium only were included on each plate and served as blanks for absorbance readings. MTT (Sigma-Aldrich Chemie GmbH, Buchs, Switzerland) was prepared as a 5 mg/ml stock in PBS and filter-sterilized. MTT solution (22 μL) was added to each well and tissue culture plates were incubated at 37° C. for 4 hours. Cells were then lysed with 25% SDS lysis buffer and absorbance was read at 570 nm using an AD340 plate reader (Beckman Coulter International SA, Switzerland). Absorbance values were expressed in percentage of proliferating cells in comparison with control cells (control corresponds to 100%).

[2] = tested on: MINO; assay: Proliferation MTT assay, 72 h; assay type: cell-based; conditions: Homo sapiens, MINO (MCL), 72 h exposure
Procedure: as §1, §2, §3

[3] = tested on: GRANTA519; assay: Proliferation MTT assay, 72 h; assay type: cell-based; conditions: Homo sapiens, Granta-519, GRANTA519 (MCL), 72 h exposure
Procedure: as §1, §2, §3

[4] = tested on: Z138; assay: Proliferation MTT assay, 72 h; assay type: cell-based; conditions: Homo sapiens, Z-138, Z138 (MCL), 72 h exposure
Procedure: as §1, §2, §3

[5] = tested on: SU-DHL-8; assay: Proliferation MTT assay, 72 h; assay type: cell-based; conditions: Homo sapiens, SU-DHL-8 (GCB-DLBCL), 72 h exposure
Procedure: as §1, §2, §3

[6] = tested on: OCI-LY-7; assay: Proliferation MTT assay, 72 h; assay type: cell-based; conditions: Homo sapiens, OCI-Ly7, OCI-LY-7 (GCB-DLBCL), 72 h exposure
Procedure: as §1, §2, §3

[7] = tested on: SU-DHL-16; assay: Proliferation MTT assay, 72 h; assay type: cell-based; conditions: Homo sapiens, SU-DHL-16 (GCB-DLBCL), 72 h exposure
Procedure: as §1, §2, §3

[8] = tested on: OCI-LY-19; assay: Proliferation MTT assay, 72 h; assay type: cell-based; conditions: Homo sapiens, OCI-LY19, OCI-LY-19 (GCB-DLBCL), 72 h exposure
Procedure: as §1, §2, §3

[9] = tested on: KM-H2; assay: Proliferation MTT assay, 72 h; assay type: cell-based; conditions: Homo sapiens, KM-H2 (HL), 72 h exposure
Procedure: as §1, §2, §3

[10] = tested on: AM-HLH; assay: Proliferation MTT assay, 72 h; assay type: cell-based; conditions: AM-HLH (HL), 72 h exposure
Procedure: as §1, §2, §3

[11] = tested on: FEPD; assay: Proliferation MTT assay, 72 h; assay type: cell-based; conditions: FEPD (T Cell-PTCL), 72 h exposure
Procedure: as §1, §2, §3

[12] = tested on: MAC-1; assay: Proliferation MTT assay, 72 h; assay type: cell-based; conditions: MAC-1 (T Cell - ALCL), 72 h exposure
Procedure: as §1, §2, §3

[13] = tested on: JEKO1; assay: Proliferation MTT assay, 72 h; assay type: cell-based; conditions: Homo sapiens, JeKo-1, JEKO1 (MCL), 72 h exposure
Procedure: as §1, §2, §3

[14] = tested on: FARAGE; assay: Proliferation MTT assay, 72 h; assay type: cell-based; conditions: FARAGE (GCB-DLBCL), 72 h exposure
Procedure: as §1, §2, §3

[15] = tested on: L-82; assay: Proliferation MTT assay, 72 h; assay type: cell-based; conditions: L-82 (T Cell - ALCL), 72 h exposure
Procedure: as §1, §2, §3

[16] = tested on: human Mantle cell lymphoma REC1 cells; assay: Xenograft experiment, REC1 model; assay type: in vivo; conditions: 200 mg/Kg i.p. once per day, 5 days per week
Procedure: as §2
NOD-Scid (NOD.CB17-Prkdcscid/NCrHsd) mice were purchased from Harlan Laboratory (five-six weeks of age, approximately 20 g body weight). Mice maintenance and animal experiments were performed under institutional guidelines established for the Animal Facility and with study protocols approved by the local Cantonal Veterinary Authority. Mice were subcutaneously engrafted with 15×10^6 of human Mantle cell lymphoma REC1 cells and divided into two experimental groups. Starting with tumors of 180 mm^3 volume, mice underwent treatment with single agent while controls received vehicle only. EG-011 was administered 5 days per week at the dose of 200 mg/kg (200 microliters) though i.p. injection.

[17] = tested on: HL cell lines; assay: Proliferation MTT assay, median per subtype; assay type: cell-based; conditions: HL cell lines (n=4), 72 h
Procedure: as §1, §2, §3
(§4) Binomial exact 95% confidence intervals (95% C.I.s) were calculated for median percentages. Differences in IC50 values among lymphoma subtypes were calculated using the t-Student test. Statistical significance was defined by P values of 0.05 or less.

[18] = tested on: T cell lymphomas (CTCL, PTCL, ALCL) cell lines; assay: Proliferation MTT assay, median per subtype; assay type: cell-based; conditions: 72 h
Procedure: as §1, §2, §3, §4

[19] = tested on: GCB-DLBCL cell lines; assay: Proliferation MTT assay, median per subtype; assay type: cell-based; conditions: GCB-DLBCL cell lines (n=12), 72 h
Procedure: as §1, §2, §3, §4

[20] = tested on: MCL cell lines; assay: Proliferation MTT assay, median per subtype; assay type: cell-based; conditions: MCL cell lines (n=9), 72 h
Procedure: as §1, §2, §3, §4

[21] = tested on: ABC-DLBCL cell lines; assay: Proliferation MTT assay, median per subtype; assay type: cell-based; conditions: ABC-DLBCL cell lines (n=3), 72 h
Procedure: as §1, §2, §3, §4

[22] = tested on: 39 lymphoma cell lines; assay: Proliferation MTT assay, median across the 39 cell lines; assay type: cell-based; conditions: 95% C.I. 100-20000 nM, 72 h
Procedure: as §1, with “(1%). […]” for “(1%).”
Cells were seeded in 96-well plates (non-tissue culture treated) at a density of 10,000 cells for all cell lines. […] Wells containing medium only were included on each plate and served as blanks for absorbance readings. […] Cells were then lysed with 25% SDS lysis buffer and absorbance was read at 570 nm using an AD340 plate reader (Beckman Coulter International SA, Switzerland). Absorbance values were expressed in percentage of proliferating cells in comparison with control cells (control corresponds to 100%).
Binomial exact 95% confidence intervals (95% C.I.s) were calculated for median percentages. Differences in IC50 values among lymphoma subtypes were calculated using the t-Student test. […]

[23] = tested on: OCI-LY-19; assay: Propidium iodide cell cycle staining; assay type: cell-based; conditions: OCI-LY-19, 500 and 2000 nM, 72 h
Procedure: Lymphoma cells (10^6 per condition) were fixed in cold 70% ethanol (for at least 30 minutes at 4° C.), added dropwise to the cell pellet while vortexing. Cells were washed ×2 in PBS and Spin at 2000 rpm; supernatant was discarded and cells suspended in PBS (0.5 mL) and treated with Ribonuclease (50 μl of 100 μg/mL RNase). Then 200 μl of propidium iodide (50 μg/ml) were added and data acquisition was performed by using BD FACS-Canto II.

[24] = tested on: PLL cell lines; assay: Proliferation MTT assay, median per subtype; assay type: cell-based; conditions: PLL cell lines (n=2), 72 h

For `C=CC(=O)N1CCCC(n2c(=O)c3ncccc3n(Cc3ccc(Oc4ccccc4)cc3)c2=O)C1` (centres unmarked) [EG-011, 1-[(4-phenoxyphenyl)methyl]-3-(1-prop-2-enoyl-3-piperidyl)pyrido[3,2-d]pyrimidine-2,4-dione], the IC50 [1] was 20000 nM, the IC50 [2] was 100 nM and the IC50 [3] was 250 nM. It also gave an IC50 [4] of 20000 nM, an IC50 [5] of 300 nM and an IC50 [6] of 5000 nM. The IC50 [7] was 1500 nM, the IC50 [8] was 150 nM and the IC50 [9] was 2500 nM. The IC50 [10] was 18000 nM, the IC50 [11] was 3000 nM and the IC50 [12] was 150 nM. For the same compound, the IC50 [13] was 4000 nM, the IC50 [14] was 2000 nM and the IC50 [15] was 2000 nM. The “body weight of treated animals (in vivo toxicity)” value [16] was “no reduction in the body weight”, the “tumor growth (volume) versus control” value ([16]; Day 6, Day 7, Day 9, P<0.05) was “delayed tumor growth” and the “tumor weight versus control” value ([16]; P<0.001 (FIG. 8)) was “delayed”. It also gave an IC50 [17] of 13500 nM, an IC50 [18] of 2500 nM and an IC50 [19] of 550 nM. It also gave an IC50 [20] of 1000 nM, an IC50 [21] of 10000 nM and an IC50 [22] of 2500 nM. For the same compound, the “cells in the sub-GO phase (dead cells)” value [23] was “dose dependent increase of the cells in the sub-GO phase” and the IC50 [24] was 7500 nM.
